Among the data in BindingDB's records for patent US20230357269 (Les Laboratoires Servier, 2023) are IC50 values, retold here.

What is called pIC50 is −log10 of the IC50, conventionally taken in molar units. A lower pIC50 goes with a large IC50.

SMILES strings stand for the structures. pIC50: −log10 of the molar value.

The target in the assay is Leucine-rich repeat serine/threonine-protein kinase 2 (Homo sapiens, UniProt Q5S007). Briefly: LRRK2 Kinase Activity Assay. The method, then:
LRRK2 Kinase reactions were carried out in 384-well white polystyrene plates in a final volume of 6 μl using ADP-Glo Kinase Assay kit (Promega Corp.). Compound and substrates (LRRKtide peptide and ATP) in assay buffer were first dispensed in wells. Kinase reaction was then started by the addition of human recombinant LRRK2 protein. After 1h-incubation at 37 C., the enzymatic reaction was stopped by the addition of 6 μl of ADP-Glo Reagent-1 and an additional 40-minutes incubation at 23 C. (residual ATP depletion). A final 30-minutes incubation after 12 μL reagent-2 addition (ADP to ATP conversion and luciferin/luciferase reaction) was performed before luminescent signal acquisition (EnVision multimode plate reader-PerkinElmer, Inc.). Data from 10 individual concentrations of tested compounds (N=2) were fitted (XLfit -ID Business Solutions Ltd) to deliver IC50s (compound concentration leading to 50% inhibition of reference enzymatic activity).

Sequence of Leucine-rich repeat serine/threonine-protein kinase 2 (Q5S007 whole entry): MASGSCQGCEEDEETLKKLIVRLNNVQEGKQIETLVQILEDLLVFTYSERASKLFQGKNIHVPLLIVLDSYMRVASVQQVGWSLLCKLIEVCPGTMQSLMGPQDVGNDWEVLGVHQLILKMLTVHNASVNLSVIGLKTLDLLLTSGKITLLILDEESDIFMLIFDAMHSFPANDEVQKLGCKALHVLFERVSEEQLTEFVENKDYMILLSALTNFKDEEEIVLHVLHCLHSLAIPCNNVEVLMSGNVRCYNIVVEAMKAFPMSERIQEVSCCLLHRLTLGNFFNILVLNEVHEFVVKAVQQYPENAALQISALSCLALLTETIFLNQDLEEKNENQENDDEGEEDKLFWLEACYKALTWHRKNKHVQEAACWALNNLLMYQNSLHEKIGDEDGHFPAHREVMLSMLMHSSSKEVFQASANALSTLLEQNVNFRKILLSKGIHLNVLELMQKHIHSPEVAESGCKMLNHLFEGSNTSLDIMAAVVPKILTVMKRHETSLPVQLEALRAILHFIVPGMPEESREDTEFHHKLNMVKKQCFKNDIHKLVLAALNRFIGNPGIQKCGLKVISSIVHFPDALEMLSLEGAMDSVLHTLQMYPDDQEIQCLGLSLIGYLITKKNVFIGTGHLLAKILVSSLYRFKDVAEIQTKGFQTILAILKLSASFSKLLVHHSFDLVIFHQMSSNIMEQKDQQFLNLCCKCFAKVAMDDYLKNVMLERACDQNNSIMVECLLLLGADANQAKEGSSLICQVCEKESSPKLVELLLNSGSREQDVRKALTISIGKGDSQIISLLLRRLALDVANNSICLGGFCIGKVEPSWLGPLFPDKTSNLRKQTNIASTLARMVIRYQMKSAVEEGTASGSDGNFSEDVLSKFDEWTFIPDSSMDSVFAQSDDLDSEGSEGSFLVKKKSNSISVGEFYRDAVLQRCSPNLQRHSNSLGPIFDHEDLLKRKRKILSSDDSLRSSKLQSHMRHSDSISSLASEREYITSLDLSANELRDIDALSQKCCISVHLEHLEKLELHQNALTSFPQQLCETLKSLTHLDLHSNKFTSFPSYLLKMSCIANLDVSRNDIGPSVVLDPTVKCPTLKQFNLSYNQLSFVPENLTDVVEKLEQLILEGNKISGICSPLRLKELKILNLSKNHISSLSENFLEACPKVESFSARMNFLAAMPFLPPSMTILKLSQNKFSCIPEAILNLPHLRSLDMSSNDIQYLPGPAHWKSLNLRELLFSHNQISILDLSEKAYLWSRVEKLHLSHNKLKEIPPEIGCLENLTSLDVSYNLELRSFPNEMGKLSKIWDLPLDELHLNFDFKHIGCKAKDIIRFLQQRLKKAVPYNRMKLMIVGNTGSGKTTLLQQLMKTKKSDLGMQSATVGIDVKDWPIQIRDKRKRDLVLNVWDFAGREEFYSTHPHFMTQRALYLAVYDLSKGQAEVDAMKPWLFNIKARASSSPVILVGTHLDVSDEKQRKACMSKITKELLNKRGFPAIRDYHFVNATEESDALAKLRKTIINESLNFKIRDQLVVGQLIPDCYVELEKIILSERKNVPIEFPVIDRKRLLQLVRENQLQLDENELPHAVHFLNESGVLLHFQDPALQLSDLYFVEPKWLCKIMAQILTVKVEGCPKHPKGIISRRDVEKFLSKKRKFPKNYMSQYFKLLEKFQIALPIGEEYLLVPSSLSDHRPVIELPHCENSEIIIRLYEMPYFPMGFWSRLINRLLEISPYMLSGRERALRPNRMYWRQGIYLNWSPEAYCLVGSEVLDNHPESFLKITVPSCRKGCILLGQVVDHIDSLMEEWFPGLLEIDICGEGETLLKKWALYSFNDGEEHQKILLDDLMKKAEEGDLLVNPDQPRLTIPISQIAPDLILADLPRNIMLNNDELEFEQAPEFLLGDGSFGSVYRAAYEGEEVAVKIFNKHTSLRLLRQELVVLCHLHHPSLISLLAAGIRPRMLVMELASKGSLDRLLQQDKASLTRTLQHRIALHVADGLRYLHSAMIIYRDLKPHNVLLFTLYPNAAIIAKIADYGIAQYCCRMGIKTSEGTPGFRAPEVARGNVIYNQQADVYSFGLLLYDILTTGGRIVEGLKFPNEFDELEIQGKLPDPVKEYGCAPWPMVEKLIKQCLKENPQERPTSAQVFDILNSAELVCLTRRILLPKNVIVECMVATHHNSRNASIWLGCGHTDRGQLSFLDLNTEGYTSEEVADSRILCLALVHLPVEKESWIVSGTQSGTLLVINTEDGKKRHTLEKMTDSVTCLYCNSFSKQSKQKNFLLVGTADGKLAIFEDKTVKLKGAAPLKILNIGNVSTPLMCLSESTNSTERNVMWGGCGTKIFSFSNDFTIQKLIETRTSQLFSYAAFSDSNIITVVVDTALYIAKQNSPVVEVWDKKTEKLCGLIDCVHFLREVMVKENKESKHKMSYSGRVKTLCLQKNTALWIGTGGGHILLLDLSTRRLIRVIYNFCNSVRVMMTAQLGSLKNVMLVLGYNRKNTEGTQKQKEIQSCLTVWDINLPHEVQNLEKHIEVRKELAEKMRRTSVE

Turning to `O=C1NCCCOc2ccc3[nH]nc(c3c2)-c2cc(Br)cc(c2)CO1` [US20230357269, Example 9], the pIC50 is over 8.00.

The compound `O=C1NCCCOc2ccc3[nH]nc(c3c2)-c2ccc(Br)c(c2)CO1` [US20230357269, Example 30] had a pIC50 of over 8.00.
